# Earlier results, collected in patent publication US20080096972A1, “COMPOUND FORMULATIONS OF 2-AMINO-1, 3-PROPANEDIOL COMPOUNDS” (priority 2004, published 2008).
# Details: shortly after preparation or upon storage
structure (smiles),measurement,value
"CCCCCCCCc1ccc(CCC(N)(CO)CO)cc1 [2-amino-2-[2-(4-octylphenyl)ethyl]-propane-1,3-diol]",crystalline deposits in aqueous solutions,crystalline deposits of this compound have been observed
